Test results: publication PMC10586439 (ACS Omega, 2023)
Like-named read-outs stand apart in the source and are kept apart here. Each block holds one compound with its values, some of them ahead of it.

Tests used:
[1] = system: MDA-MB-231 human breast carcinoma cell line; assay: MTT cytotoxicity assay against MDA-MB-231 breast carcinoma cell line; type: cell-based
β-tubulin = β-tubulin (Homo sapiens, UniProt P07437+P68363); assay: β-Tubulin polymerization inhibition; type: biochemical; conditions: read-out: β-tubulin polymerization inhibition percentage
Chain of β-tubulin (P07437 whole entry): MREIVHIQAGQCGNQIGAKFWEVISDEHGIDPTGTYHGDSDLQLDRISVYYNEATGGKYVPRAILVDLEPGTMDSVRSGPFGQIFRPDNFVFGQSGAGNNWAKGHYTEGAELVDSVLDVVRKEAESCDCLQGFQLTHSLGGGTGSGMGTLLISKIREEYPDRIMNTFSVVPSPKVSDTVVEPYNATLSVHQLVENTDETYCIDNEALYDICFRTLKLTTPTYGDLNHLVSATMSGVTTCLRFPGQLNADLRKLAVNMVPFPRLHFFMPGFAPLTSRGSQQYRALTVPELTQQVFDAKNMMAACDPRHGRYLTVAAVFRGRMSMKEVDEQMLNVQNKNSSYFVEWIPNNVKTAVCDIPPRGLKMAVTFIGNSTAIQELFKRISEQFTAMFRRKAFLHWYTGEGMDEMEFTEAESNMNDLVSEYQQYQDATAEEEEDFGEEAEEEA
Chain of β-tubulin (P68363 whole entry): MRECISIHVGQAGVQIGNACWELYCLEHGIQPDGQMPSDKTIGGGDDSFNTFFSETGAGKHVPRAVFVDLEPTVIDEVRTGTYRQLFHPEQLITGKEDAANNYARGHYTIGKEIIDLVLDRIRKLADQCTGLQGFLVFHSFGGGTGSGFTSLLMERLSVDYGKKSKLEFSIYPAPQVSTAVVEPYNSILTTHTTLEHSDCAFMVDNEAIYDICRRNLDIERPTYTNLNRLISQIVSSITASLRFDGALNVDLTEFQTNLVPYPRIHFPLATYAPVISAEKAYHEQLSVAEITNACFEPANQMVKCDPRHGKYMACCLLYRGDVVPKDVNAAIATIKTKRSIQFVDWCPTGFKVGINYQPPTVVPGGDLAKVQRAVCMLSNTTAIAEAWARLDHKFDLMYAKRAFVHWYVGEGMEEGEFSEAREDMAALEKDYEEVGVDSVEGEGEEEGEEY

[2] = system: normal MCF-10A breast cells; assay: MTT cytotoxicity assay on normal MCF-10A breast cells; type: cell-based; conditions: for IC50: Homo sapiens, MCF-10A, read-out: IC50 value (μM) MCF-10A
MDA-MB-231 cells [3] = assay: Cell cycle analysis by flow cytometry; type: cell-based, human
MDA-MB-231 cells [4] = assay: Annexin V-FITC/PI apoptosis assay by flow cytometry; type: cell-based, human; conditions: MDA-MB-231, 48 h, compound at its IC50
[5] = MDA-MB-231, 24 h, read-out: IC50 value (μM) MDA-MB-231
[6] = MDA-MB-231, read-out: IC50 against MDA-MB-231 cells

Compound: CCCOC(=O)/C(=C/c1ccc(Cl)cc1)NC(=O)c1cc(OC)c(OC)c(OC)c1 [5g, (Z)-Propyl 3-(4-Chlorophenyl)-2-(3,4,5-trimethoxybenzamido)acrylate]
IC50 [1, 5]: 23.2 ± 0.4 µM

Compound: CCOC(=O)/C(=C/c1ccc(Cl)cc1)NC(=O)c1ccc(OC)c(OC)c1 [5b, (Z)-Ethyl 3-(4-Chlorophenyl)-2-(3,4-dimethoxybenzamido)acrylate]
IC50 [1, 5]: 15.8 ± 0.41 µM

inhibition at 25 µM (β-tubulin): 57.1%
Compound: COC(=O)/C(=C/c1ccc(Cl)cc1)NC(=O)c1ccc(OC)c(OC)c1 [5a, (Z)-Methyl 3-(4-Chlorophenyl)-2-(3,4-dimethoxybenzamido)acrylate]
IC50 [1, 5]: 4.84 ± 0.19 µM

inhibition at 25 µM (β-tubulin): 77.8%
Compound: COC(=O)/C(=C/c1ccc(Cl)cc1)NC(=O)c1cc(OC)c(OC)c(OC)c1 [5e, (Z)-Methyl 3-(4-Chlorophenyl)-2-(3,4,5-trimethoxybenzamido)acrylate]
IC50 [1, 5]: 4.03 ± 0.16 µM
IC50 [1, 6]: 4.06 µM

Compound: CCOC(=O)/C(=C/c1ccc(Cl)cc1)NC(=O)c1cc(OC)c(OC)c(OC)c1 [5f, (Z)-Ethyl 3-(4-Chlorophenyl)-2-(3,4,5-trimethoxybenzamido)acrylate]
IC50 [1, 5]: 11.6 ± 0.24 µM

Compound: CCCOC(=O)/C(=C/c1ccc(Cl)cc1)NC(=O)c1ccc(OC)c(OC)c1 [5c, (Z)-Propyl 3-(4-Chlorophenyl)-2-(3,4-dimethoxybenzamido)acrylate]
IC50 [1, 5]: 14.3 ± 0.33 µM

inhibition at 25 µM (β-tubulin): 80.1%
Compound: COc1cc(C(=O)N/C(=C\c2ccc(Cl)cc2)C(=O)O)cc(OC)c1OC [4b, (Z)-3-(4-Chlorophenyl)-2-(3,4,5-trimethoxybenzamido)acrylic Acid]
IC50 [2]: 23.3 ± 0.32 µM
mean tumor selectivity index ([2]; MCF-10A versus MDA-MB-231): 7.2
percentage of cells in G2/M phase (MDA-MB-231 cells [3]; MDA-MB-231, 48 h, compound at its IC50, untreated control 7.35%): 28.08%
cell accumulation at G2/M stage, times higher than untreated control (MDA-MB-231 cells [3]; MDA-MB-231, compound at its IC50): 3.82 times
IC50 [1, 5]: 3.24 ± 0.13 µM
late-secondary cellular apoptosis (MDA-MB-231 cells [4]; untreated control 0.24%): 12.62%
early primary apoptosis (MDA-MB-231 cells [4]; untreated control 0.69%): 8.09%

inhibition at 25 µM (β-tubulin): 89.8%
Compound: COc1ccc(/C=C\c2cc(OC)c(OC)c(OC)c2)cc1O [CA-4, combretastatin A-4, reference compound]
IC50 [2]: 14.2 ± 0.29 µM
IC50 [1, 5]: 1.27 µM

Compound: COc1cc(C(=O)N/C(=C\c2ccc(Cl)cc2)C(=O)OC(C)C)cc(OC)c1OC [5h, (Z)-Isopropyl 3-(4-Chlorophenyl)-2-(3,4,5-trimethoxybenzamido)acrylate]
IC50 [1, 5]: 25.2 ± 0.51 µM

Compound: COc1ccc(C(=O)N/C(=C\c2ccc(Cl)cc2)C(=O)O)cc1OC [4a, (Z)-3-(4-Chlorophenyl)-2-(3,4-dimethoxybenzamido)acrylic Acid]
IC50 [1, 5]: 8.24 ± 0.37 µM
IC50 [1, 6]: 8.55 to 15.9 µM

Compound: CCCCOC(=O)/C(=C/c1ccc(Cl)cc1)NC(=O)c1cc(OC)c(OC)c(OC)c1 [5i, (Z)-Butyl 3-(4-Chlorophenyl)-2-(3,4,5-trimethoxybenzamido)acrylate]
IC50 [1, 5]: 28.1 ± 0.56 µM

Compound: CCCCOC(=O)/C(=C/c1ccc(Cl)cc1)NC(=O)c1ccc(OC)c(OC)c1 [5d, (Z)-Butyl 3-(4-Chlorophenyl)-2-(3,4-dimethoxybenzamido)acrylate]
IC50 [1, 5]: 45.9 ± 1.02 µM
IC50 [1, 6]: 45.8 µM
